Measured values reported in patent US10220039B2, “Method of treating polycystic kidney diseases with ceramide derivatives” (Genzyme Corporation, priority 2007, dated 2019).

Test system: jck mice
Assay: jck mouse model of polycystic kidney disease, 0.225% Compound A in feed, 26-64 days of age
Assay type: in vivo
Conditions: for K/BW ratio (%) / Body weight / BUN / Cystic volume (% BW): treated, 26-64 days of age; for K/BW ratio (%) / Body weight: 0.225% in feed ad libitum; for Body weight: at sacrifice; for BUN / Cystic volume (% BW): 0.225% in feed; for Cystic volume (% BW): percentage cystic area multiplied by kidney/body weight ratio
Procedure: jck mice was administered Compound A ad libitum in feed (0.225% Compound A mixed with a standard diet chow in powdered format) from 26-64 days of age. Control jck mice were fed a control powdered diet from 26-64 days of age. At 63 days of age, animals were transferred to metabolic cages for 24 hour urine collection. At 64 days of age, animals were sacrificed by CO2 administration. Blood was collected by heart puncture for serum isolation. Kidneys were isolated and bisected; half of each kidney was fixed in 4% paraformaldehyde in PBS overnight for paraffin embedding and H&E staining.
Total body weight and kidney weight were determined at sacrifice.
Cyst volume was measured by quantitating the percentage of cystic area in histological sections of kidneys from the treated and control animals, multiplied by the kidney/body weight ratio.
Blood urea nitrogen (BUN) levels were determined in serum samples derived from animals at sacrifice.

[1] = treated vs control jck mice, p-value<0.05, two-tailed t-test

SMILES: CCCCCCCCC(=O)N[C@H](CN1CCCC1)[C@H](O)c1ccc2c(c1)OCCO2 [Compound A, N-((1R,2R)-1-(2,3-dihydrobenzo[1,4|]dioxin-6-yl)-1-hydroxy-3-(pyrrolidin-1-yl)propan-2-yl)nonanamide]
- K/BW ratio (%) (female jck mice): 3.57 ± 0.58 %
- Body weight (female jck mice): 15.93 ± 1.65 g
- BUN (female jck mice, serum at sacrifice): 34.67 ± 9.41 mg/dL
- Cystic volume (% BW) (female jck mice): 0.58 ± 0.29 % BW
- cystic disease, as measured by kidney/body weight ratio and cyst volume (in feed at 0.225%, both males and females): statistically significant reduction
- PKD in a mouse model (jck mice): Effectively Inhibited PKD
- K/BW ratio (%) (male jck mice): 4.46 ± 0.46 %
- Body weight (male jck mice): 18.43 ± 1.82 g
- BUN (male jck mice, serum at sacrifice): 39.25 ± 10.70 mg/dL
- Cystic volume (% BW) (male jck mice): 0.88 ± 0.23 % BW
- renal function (treated animals relative to controls, in feed at 0.225%, both males and females): improved renal function
- cyst volume [1]: significant decrease
- kidney weight/body weight ratio [1]: significant difference
- total body weight [1]: statistically significant decrease
- BUN levels (treated vs untreated control jck mice, serum at sacrifice, p-value<0.05, two-tailed t-test): significant reduction
